Here are results for 1 compound from US20240261418A1, “SOS1 DEGRADING AGENT AND PREPARATION METHOD THEREFOR AND APPLICATION THEREOF” (SHANGHAI LEADINGTAC PHARMACEUTICAL CO. LTD., priority 2021, published 2024).

One assay deals with T1, SOS1 protein (Homo sapiens, UniProt Q07889).
T1 sequence (Q07889 1-1333): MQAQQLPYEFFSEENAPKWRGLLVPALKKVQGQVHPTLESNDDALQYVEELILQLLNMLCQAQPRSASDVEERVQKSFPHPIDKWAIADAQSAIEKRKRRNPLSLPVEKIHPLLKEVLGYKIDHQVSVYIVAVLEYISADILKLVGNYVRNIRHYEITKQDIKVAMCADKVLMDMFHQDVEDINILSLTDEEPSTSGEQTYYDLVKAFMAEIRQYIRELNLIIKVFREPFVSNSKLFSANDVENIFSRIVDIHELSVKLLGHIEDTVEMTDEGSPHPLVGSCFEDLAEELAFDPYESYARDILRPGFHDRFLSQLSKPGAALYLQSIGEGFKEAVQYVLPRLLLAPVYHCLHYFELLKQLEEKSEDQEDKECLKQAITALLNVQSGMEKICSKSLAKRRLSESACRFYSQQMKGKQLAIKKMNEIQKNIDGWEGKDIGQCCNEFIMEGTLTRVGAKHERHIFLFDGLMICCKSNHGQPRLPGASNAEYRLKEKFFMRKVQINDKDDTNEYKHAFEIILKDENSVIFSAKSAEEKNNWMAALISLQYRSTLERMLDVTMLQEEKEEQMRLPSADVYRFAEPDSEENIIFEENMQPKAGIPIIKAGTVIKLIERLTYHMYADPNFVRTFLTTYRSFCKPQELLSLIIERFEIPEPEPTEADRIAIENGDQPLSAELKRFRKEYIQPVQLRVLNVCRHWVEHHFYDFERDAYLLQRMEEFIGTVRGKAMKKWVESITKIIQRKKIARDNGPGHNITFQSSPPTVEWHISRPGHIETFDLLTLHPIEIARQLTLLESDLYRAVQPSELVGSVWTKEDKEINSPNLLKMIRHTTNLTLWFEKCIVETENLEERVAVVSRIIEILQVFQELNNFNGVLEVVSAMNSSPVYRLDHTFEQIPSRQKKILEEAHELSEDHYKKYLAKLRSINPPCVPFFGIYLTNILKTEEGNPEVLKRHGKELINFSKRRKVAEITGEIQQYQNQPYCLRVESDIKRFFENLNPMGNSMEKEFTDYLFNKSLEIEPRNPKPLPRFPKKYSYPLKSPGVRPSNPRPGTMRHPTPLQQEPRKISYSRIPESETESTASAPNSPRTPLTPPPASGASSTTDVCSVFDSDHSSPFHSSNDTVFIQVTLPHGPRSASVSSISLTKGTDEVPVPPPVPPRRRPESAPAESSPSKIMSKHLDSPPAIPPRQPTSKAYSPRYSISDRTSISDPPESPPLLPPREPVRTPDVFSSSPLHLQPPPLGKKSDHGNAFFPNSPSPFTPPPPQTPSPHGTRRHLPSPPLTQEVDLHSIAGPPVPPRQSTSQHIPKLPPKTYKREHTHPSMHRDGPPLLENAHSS
The assay is described as follows: SOS1 degradation assay (Western blot) in NCI-H358 cells. The note with it: NCI-H358 (KRAS G12C), 24 h. It counts as cell-based. As for the experimental part: The specific procedures were as follows:
0.95 mL of cells were seeded into each well of a 24-well cell culture plate to achieve a cell density of 5×10^5 cells/well; the cell plate was incubated in an incubator at 37° C. with 5% CO2 overnight. Then 50 μL of the compound solution after dilution was added to each of the wells with the corresponding cells, so that the final concentration of the compound was in a range of 0.03-3000 nM.
After dosing, the cell plate was incubated in an incubator at 37° C. with 5% CO2 for 24 h. […] After the plate was left to stand on ice for 30 min, the protein lysate in each well was transferred to a 1.5 mL centrifuge tube and centrifuged at 15000 g for 20 min at 4° C. The cell lysate supernatant after centrifugation was cryopreserved at −80° C. for testing and was used for determining the degradation level of the SOS1 protein by a WB method. The concentration of total protein in the cell lysate supernatant was determined using the BCA Protein Quantification Kit (Tiangen, PA115-02).
The concentration of total protein in the cell lysate was determined by BCA. The total protein was adjusted to 0.5 μg/μL with PBS and 5×SDS- PAGE protein loading buffer (Beyotime, P001L), incubated in a water bath at 100° C. for 15 min, incubated in an ice bath on ice for 5 min, centrifuged at 14000 g for 1 min at 4° C., and mixed well as a loading sample for WB. Protein electrophoresis was performed on a precast gel (KeyGEN, KGMG010W15) with a loading volume of 10 μL (total protein: 5 μg) using a Tris-MOPS-SDS running solution (Adamas, P1598253) at a constant voltage of 120 V for 55 min. After the electrophoresis, the protein on the gel strip was transferred to a PVDF membrane at a constant current of 250 mA for 65 min. After the membrane transfer, the membrane was incubated in 1× QuickBlock blocking buffer (Beyotime, P0235) for 30 min at room temperature. […] The protein map was subjected to gray value analysis by the chemiluminescence imaging system from Clinx. […] Then the degradation rate was calculated by comparing the gray correction value with the gray correction value of the control group. Then nonlinear curve fitting was performed by GraphPad Prism 8 in the logarithmic concentration-inhibition rate to obtain the DC50 and Dmax values of the compounds.
(In general: Immunoblotting shows a protein as a band on a membrane.)

A further assay has as its target T2, KRAS-G12C/SOS1 (Homo sapiens, UniProt Q07889).
T2 construct: purchased Cisbio 63ADK000CB16PEG
T2 sequence (Q07889 1-1333): T1 sequence (Q07889 1-1333)
In words: KRAS-G12C/SOS1 binding assay (HTRF). To be noted: inhibition of KRAS-G12C/SOS1 binding. On the procedure:
Test Example 1: KRAS-G12C/SOS1 Binding Assay
The following method was used to determine the extent of inhibition of KRAS-G12C/SOS1 binding by the preferred compounds of the present invention under in vitro conditions. In this method, the competitive inhibition of KRAS-G12C/SOS1 binding by the preferred compounds was assayed by the homogeneous time-resolved fluorescence (HTRF) technology using the KRAS-G12C/SOS1 binding assay kit (Cisbio, 63ADK000CB16PEG).
The experimental procedures were as follows (refer to the kit instructions for details): the compounds of the present invention were each firstly dissolved in DMSO at a concentration of 20 mM, and then diluted in an equal gradient with a buffer in the kit, so that the final concentrations of the test compounds in the reaction system were in a range of 10000 nM-0.04 nM, and the final concentration of DMSO was 0.5%. 2 μL of the compounds were each incubated with 4 μL of 1×Tag1-SOS1, 4 μL of 1×Tag2-KRAS-G12C (containing 10 μM guanosine triphosphate, GTP) at 25° C. for 15 min. Then 5 μL of 1×Anti-Tag1-Tb3+ and 5 μL of 1×Anti-Tag2-XL665 were added to the reaction system, and the mixture was incubated on ice for 3 h. After the incubation, the fluorescence intensity of each well was measured at the excitation wavelength of 337 nm, the fluorescence intensity of each well was read at the emission wavelengths of 620 nm and 665 nm on a microplate reader EnVision (PerkinElmer, 2105) in an HTRF mode, and the Ratio value was calculated by the formula Ratio=(665 nm/620 nm)×[…]. The inhibition rates of the compounds at each concentration were calculated by comparing the fluorescence intensity ratio with that of the control group, and then nonlinear curve fitting was performed by GraphPad Prism 8 in the logarithmic concentration-inhibition rate to obtain the IC50 values of the compounds, as shown in Table 1.
A general note: Time-resolved FRET reads energy transfer from a long-lived donor to a nearby acceptor.

Where only a bound is given, the exact number is not on record here.

For orientation: DC50 means the concentration giving 50% degradation. Low values mean degradation at low concentration, high ones degradation only at high concentration. Usually Dmax stands for the largest share of the target that was removed. A higher Dmax goes with deep degradation. Usually IC50 stands for the concentration needed to halve the response being measured. Read a low IC50 as greater potency in that assay. On SOS1 protein, `COc1cc2nc(C)nc(N[C@H](C)c3cc(-c4ccccc4CN(C)C)cs3)c2cc1[C@H]1CC[C@H](C(=O)N2CCN(CC3CCC4(CC3)CCN(C(=O)c3ccc(Cl)c(N5CCC(=O)NC5=O)c3)CC4)CC2)CC1` [Example 4, 1-(2-chloro-5-(9-((4-((1R,4R)-4-(4-(((R)-1-(4-(2-((dimethylamino)methyl)phenyl)thien-2-yl)ethyl)amino)-7-methoxy-2-methylquinazolin-6-yl)cyclohexane-1-carbonyl)piperazin-1-yl)methyl)-3-azaspiro[5.5]undecane-3-carbonyl)phenyl)dihydropyrimidine-2,4(1H,3H)-dione] registered a DC50 of 0.05 to 0.1 µM and a Dmax of 80 to 100%. Besides, on KRAS-G12C/SOS1, the IC50 was no more than 0.015 µM.
